Tests used:
Assay in all cases: cells
Set-up in all cases: CellTiter-Glo 2.0 luminescence proliferation/viability assay, single agents, human tumour cell line panel
SNU-16 = conditions: Homo sapiens, SNU-16, 96 h; single agent; read-out: IC50 SMACm
Outline: (§1)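 Human tumour cell lines were seeded into assay plates and held at 37°C with 5% CO2 for twenty-four hours, then exposed in triplicate to rising concentrations of the SMAC mimetic, from 4.5 nM to 10 μM, with DMSO as control. After 96 h, viability was read as CellTiter-Glo2.0 luminescence to derive single-agent IC50 values.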

SW1417 = conditions: Homo sapiens, SW1417, 96 h; single agent; read-out: IC50 SMACm
Outline: as §1

LoVo = conditions: Homo sapiens, LoVo, 96 h; single agent; read-out: IC50 SMACm
Outline: as §1

NCI-H2122 = conditions: Homo sapiens, NCI-H2122, 96 h; single agent; read-out: IC50 SMACm
Outline: as §1

COLO60H = conditions: 96 h; single agent; read-out: IC50 SMACm
Outline: as §1

C99 = conditions: 96 h; single agent; read-out: IC50 SMACm
Outline: as §1

SNU-668 = conditions: SNU668, 96 h; single agent; read-out: IC50 SMACm
Outline: as §1

LU-65 = conditions: Homo sapiens, Lu-65, 96 h; single agent; read-out: IC50 SMACm
Outline: as §1

NCI-H23 = conditions: Homo sapiens, NCI-H23, 96 h; single agent; read-out: IC50 SMACm
Outline: as §1

NCI-H2030 = conditions: Homo sapiens, NCI-H2030, 96 h; single agent; read-out: IC50 SMACm
Outline: as §1

SW48 = conditions: Homo sapiens, SW48, 96 h; single agent; read-out: IC50 SMACm
Outline: as §1

HCC1588 = conditions: HCC1588, 96 h; single agent; read-out: IC50 SMACm
Outline: as §1

JVE207 = conditions: 96 h; single agent; read-out: IC50 SMACm
Outline: as §1

HCC1833 = conditions: 96 h; single agent; read-out: IC50 SMACm
Outline: as §1

EBC-1 = conditions: Homo sapiens, EBC-1, 96 h; single agent; read-out: IC50 SMACm
Outline: as §1

IC50 (SNU-16): 4.32 µM
IC50 (SW1417): 3.9 µM
IC50 (LoVo): 4.76 µM
IC50 (NCI-H2122): 5.15 µM
IC50 (COLO60H): 4.37 µM
IC50 (SNU-668): 6.29 µM
IC50 (NCI-H23): 3.42 µM
IC50 (NCI-H2030): 4.29 µM
IC50 (SW48): 5.9 µM
IC50 (HCC1588): 3.07 µM
IC50 (HCC1833): 0.102 µM
Structure (SMILES): CN[C@@H](C)C(=O)Nc1ccc(-c2c(-c3cccnc3OC)nc3cc(C)ccn23)c(C#Cc2ccc3c(C)nccc3c2)n1 [SMACm, BI 891065]
IC50 (C99): 3.8 µM
IC50 (LU-65): 4.35 µM
IC50 (JVE207): 7.2 µM
IC50 (EBC-1): 2.23 µM
